Assays:
[1] = biological target: Albumin (Homo sapiens, UniProt P02768); experiment: Binding affinity to human serum albumin by UV/HPLC analysis; type: ADME; settings: isolated protein
[2] = Plasma protein binding in human at 1 to 2000 ng/mL after 3 hrs by liquid scintillation counting; type: ADME, cell-free; settings: read-out: PPB (converted)
[3] = Fraction unbound in human plasma; type: ADME, cell-free
[4] = Intrinsic clearance in rat liver microsomes assessed per mg of protein at 1 uM after 10 to 30 mins by LC/MS analysis in presence of NADPH; type: ADME, Microsome
[5] = Intrinsic clearance in rat liver microsomes assessed per mg of protein at 1 uM after 10 to 30 mins by LC/MS analysis in presence of UDP-glucuronic acid; type: ADME, Microsome
[6] = species: Cavia porcellus; experiment: Inhibition of serotonin-induced bronchoconstriction in guinea pig assessed as intrinsic duration of bronchodilatory activity at ED80
[7] = biological target: T1, Beta-2 adrenergic receptor (Homo sapiens, UniProt P07550)
Description: Agonist activity at human beta2 adrenergic receptor assessed as increase in cAMP level by whole cell assay

[8] = pH 7.4
Description: Chromatographic hydrophobicity index at 2 mg/ml at pH 7.4 by rapid gradient HPLC analysis

[9] = biological target: T1, Beta-2 adrenergic receptor; experiment: biochemical
Description: Displacement of [125I]cyanopindolol from human recombinant beta2 adrenergic receptor expressed in CHO cells by filtration assay

[10] = biological target: Beta-2 adrenergic receptor (Cavia porcellus, UniProt Q8K4Z4)
Chain of Beta-2 adrenergic receptor (Cavia porcellus, UniProt Q8K4Z4) (Q8K4Z4 whole entry): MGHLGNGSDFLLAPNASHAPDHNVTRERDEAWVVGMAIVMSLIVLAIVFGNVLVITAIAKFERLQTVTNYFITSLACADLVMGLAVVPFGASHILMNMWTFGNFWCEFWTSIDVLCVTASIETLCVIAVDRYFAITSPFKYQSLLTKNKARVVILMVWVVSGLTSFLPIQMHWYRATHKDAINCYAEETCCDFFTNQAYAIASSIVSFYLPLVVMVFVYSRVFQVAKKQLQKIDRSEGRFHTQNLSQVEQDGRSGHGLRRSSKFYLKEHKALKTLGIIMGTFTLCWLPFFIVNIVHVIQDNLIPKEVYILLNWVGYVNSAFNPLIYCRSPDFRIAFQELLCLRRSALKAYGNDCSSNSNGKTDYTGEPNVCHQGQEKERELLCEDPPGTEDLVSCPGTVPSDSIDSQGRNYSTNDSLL
Description: Agonist activity at beta2 adrenergic receptor in guinea pig tracheal strip assessed as inhibition of electrically-induced bronchocontractile response after 30 mins

T1 sequence (P07550 whole entry): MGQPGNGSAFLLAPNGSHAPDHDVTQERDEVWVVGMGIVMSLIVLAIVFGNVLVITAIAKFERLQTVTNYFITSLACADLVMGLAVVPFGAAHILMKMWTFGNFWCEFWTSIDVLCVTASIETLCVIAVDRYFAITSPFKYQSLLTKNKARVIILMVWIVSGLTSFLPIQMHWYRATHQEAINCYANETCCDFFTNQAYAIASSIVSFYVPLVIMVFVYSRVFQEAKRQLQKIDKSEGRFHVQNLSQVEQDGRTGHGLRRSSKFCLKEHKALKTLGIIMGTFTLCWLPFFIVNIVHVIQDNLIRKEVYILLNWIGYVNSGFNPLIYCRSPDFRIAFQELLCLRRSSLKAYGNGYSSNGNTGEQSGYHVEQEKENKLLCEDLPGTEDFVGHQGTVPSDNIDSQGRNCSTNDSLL
Chain of Albumin (P02768 whole entry): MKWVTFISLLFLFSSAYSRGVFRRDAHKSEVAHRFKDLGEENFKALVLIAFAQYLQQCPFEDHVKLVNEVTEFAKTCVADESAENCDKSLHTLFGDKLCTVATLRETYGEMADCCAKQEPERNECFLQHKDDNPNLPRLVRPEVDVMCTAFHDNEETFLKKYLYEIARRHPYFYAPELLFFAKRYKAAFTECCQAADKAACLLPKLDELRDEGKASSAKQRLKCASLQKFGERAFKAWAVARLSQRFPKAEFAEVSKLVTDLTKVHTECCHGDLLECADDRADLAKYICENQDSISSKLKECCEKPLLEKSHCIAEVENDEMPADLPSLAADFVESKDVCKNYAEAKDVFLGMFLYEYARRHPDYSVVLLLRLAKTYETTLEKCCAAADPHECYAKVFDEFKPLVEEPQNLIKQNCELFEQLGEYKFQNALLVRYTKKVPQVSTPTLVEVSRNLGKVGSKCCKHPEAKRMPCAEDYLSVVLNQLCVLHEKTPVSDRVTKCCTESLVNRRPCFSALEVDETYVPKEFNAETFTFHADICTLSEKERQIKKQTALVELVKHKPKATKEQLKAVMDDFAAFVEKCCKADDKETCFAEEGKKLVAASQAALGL

Compound | Activity [1] | fraction unbound at 3 h [2] | fraction unbound [3] | microsomal CLint at 1 µM [4] | microsomal CLint at 1 µM [5] | EC50 [7] | CHI [8] | Ki [9] | IC50 [10] | Time [6]
CCc1cc2c(cc1CC)CC(NC[C@H](O)c1ccc(O)c3[nH]c(=O)ccc13)C2 [INDACATEROL] | 95.7% | 0.049 | 0.043 | 76 µL/min/mg | 378 µL/min/mg | 11 nM | 59.7 | 76 nM |  | 24 h
COc1cc2c(cc1OC)CC(NC[C@H](O)c1ccc(O)c3[nH]c(=O)ccc13)C2 | 59.5% |  |  |  |  | 18 nM | 32.4 | 342 nM | 2.3 nM | 
O=c1ccc2c([C@@H](O)CNC3Cc4ccccc4C3)ccc(O)c2[nH]1 | 63.8% |  |  |  |  | 5 nM | 38.2 | 218 nM | 0.83 nM | 
CCc1cc2c(cc1CC)CC(NC[C@H](O)c1ccc(O[C@@H]3O[C@H](C(=O)O)[C@@H](O)[C@H](O)[C@H]3O)c3[nH]c(=O)ccc13)C2 |  |  |  |  |  |  |  | > 10000 nM |  | 
COc1ccc(C[C@@H](C)NC[C@H](O)c2ccc(O)c3[nH]c(=O)ccc23)cc1 [CARMOTEROL] | 57.1% |  |  |  |  | 0.76 nM | 37.7 | 3.19 nM | 0.3 nM | 
Cc1cc2c(cc1C)CC(NC[C@H](O)c1ccc(O)c3[nH]c(=O)ccc13)C2 | 89.8% |  |  |  |  | 39 nM | 54.9 | 522 nM | 48 nM | 

Continued, in another order:

Activity [1] | fraction unbound at 3 h [2] | fraction unbound [3] | microsomal CLint at 1 µM [4] | microsomal CLint at 1 µM [5] | EC50 [7] | CHI [8] | Ki [9] | IC50 [10] | Compound | Time [6]
29.9% |  |  |  |  |  | 21 |  |  | CC(C)(C)NCC(O)c1ccc(O)c(CO)c1 (centres undefined) [ALBUTEROL] | 
99.5% |  |  |  |  | 25 nM | > 70 | 112 nM | > 1000 nM | CCCCc1cc2c(cc1CCCC)CC(NC[C@H](O)c1ccc(O)c3[nH]c(=O)ccc13)C2 | 
91.1% |  |  |  |  |  | 56.7 |  |  | OCc1cc(C(O)CNCCCCCCOCCCCc2ccccc2)ccc1O (centres undefined) [SALMETEROL] | 
98.6% |  |  |  |  | 14 nM | > 70 | 119 nM | 20 nM | CCCc1cc2c(cc1CCC)CC(NC[C@H](O)c1ccc(O)c3[nH]c(=O)ccc13)C2 | 
94% |  |  |  |  | 115 nM | 62.9 | 692 nM | 75 nM | CCc1ccc(CC)c2c1CC(NC[C@H](O)c1ccc(O)c3[nH]c(=O)ccc13)C2 | 
